According to patent publication US20040076581A1, “Use of neuropeptide y1 receptor binding compounds in the treatment and diagnosis of cancer” (priority 2000, published 2004):
“Also recorded” adds a separate entry of the source.

What was measured:
[1] = biological target: T1, NPY receptors in breast carcinoma (Homo sapiens, UniProt P25929); experiment: NPY receptor autoradiography, total binding of radioligands to breast carcinoma
T1 construct: Twenty-μm thick cryostat sections of the tissue samples were processed for NPY receptor autoradiography; from tissue; host or cells: human breast carcinoma cryostat sections
T1 sequence (P25929 1-384): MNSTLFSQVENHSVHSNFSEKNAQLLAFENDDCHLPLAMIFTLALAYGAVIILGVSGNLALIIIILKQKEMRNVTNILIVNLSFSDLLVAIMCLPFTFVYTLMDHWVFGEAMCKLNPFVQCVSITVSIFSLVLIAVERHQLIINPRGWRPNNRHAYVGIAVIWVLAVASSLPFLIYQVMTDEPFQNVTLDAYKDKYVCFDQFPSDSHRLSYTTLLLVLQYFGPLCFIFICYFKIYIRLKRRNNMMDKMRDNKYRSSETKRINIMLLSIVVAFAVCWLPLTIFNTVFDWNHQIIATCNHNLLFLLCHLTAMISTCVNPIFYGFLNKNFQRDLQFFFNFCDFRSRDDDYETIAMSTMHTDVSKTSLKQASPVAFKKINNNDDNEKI
Experimental: (§1) Twenty-μm thick cryostat sections of the tissue samples were processed for NPY receptor autoradiography as described in detail previously for other peptide receptors (Reubi, J. C. et al. Cancer Res. 50, 5969-5977 (1990)). One radioligand used was ^125I-PYY (2'000 Ci/mmol; […], Switzerland), known to specifically label NPY receptors. For autoradiography, tissue sections were mounted on precleaned microscope slides and stored at -20° C. for at least 3 days to improve adhesion of the tissue to the slide. Sections were then processed according to Dumont et al. (J. Neurosci. 13, 73-86 (1993)). They were first preincubated in 119 mM NaCl, 3.2 mM KCl, 1.19 mM KH2PO4, 1.19 mm MgSO4, 25 mM NaHCO3, 2.53 mM CaCl2×2H2O and 10 mM D-glucose, pH 7.4 (preincubation solution), for 60 min at room temperature. The slides were then incubated in a solution containing the same medium as the preincubation solution in which the following compounds were added: 0.1% bovine serum albumin, 0.05% bacitracin, pH 7.4, and the radioligand, at approximate concentration of 22 pM ^125I-PYY. The slides were incubated at room temperature with the radioligand for 120 min. On completion of the incubation, the slides were washed four times for 5 min each in ice-cold preincubation solution, pH 7.4. They were rinsed twice in ice-cold distilled water, and then dried under a stream of cold air at 4° C., apposed to ^3H-Hyperfilms and exposed for 7 days in x-ray cassettes. […] Int 21, 45-67 (1992); […] Neurosci. 76, 215-224 (1997)). Identical experimental conditions as mentioned for ^125I-PYY were used. The autoradiograms were quantified using a computer-assisted image processing system, as described previously (Reubi et al. (1990), supra; […] & Reubi Can. Res. 59,1152-1159 (1999)). Tissue standards for iodinated compounds (Amersham) were used for this purpose. A tissue was defined as receptor-positive when the optical density measured in the total binding section was at least twice that of the nonspecific binding section (in the presence of 10^-7 mol/L PYY).

[2] = tested on: NPY receptors in normal breast; experiment: NPY receptor autoradiography, total binding of radioligands to adjacent normal breast; set-up: species or system human; conditions: FIG. 1
Experimental: as §1

[3] = biological target: T2, Y2 receptors in normal breast (Homo sapiens, UniProt P49146); experiment: NPY receptor autoradiography, displacement of 125I-PYY in adjacent normal breast sections; type: binding; conditions: FIG. 1; surrounding normal breast expressing predominantly Y2
T2 construct: Twenty-μm thick cryostat sections of the tissue samples were processed for NPY receptor autoradiography; from tissue; host or cells: human normal breast tissue adjacent to carcinoma, cryostat sections
T2 sequence (P49146 1-381): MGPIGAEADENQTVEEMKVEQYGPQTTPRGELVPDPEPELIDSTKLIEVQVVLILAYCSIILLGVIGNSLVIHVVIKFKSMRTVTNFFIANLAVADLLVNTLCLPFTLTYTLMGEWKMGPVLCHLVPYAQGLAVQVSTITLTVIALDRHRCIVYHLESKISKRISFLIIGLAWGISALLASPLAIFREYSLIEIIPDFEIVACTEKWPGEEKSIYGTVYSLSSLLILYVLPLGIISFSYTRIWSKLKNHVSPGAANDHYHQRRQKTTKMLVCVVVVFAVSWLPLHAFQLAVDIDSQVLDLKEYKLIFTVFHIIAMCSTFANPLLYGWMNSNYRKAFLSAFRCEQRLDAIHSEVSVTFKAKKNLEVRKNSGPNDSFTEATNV
Experimental: For autoradiography, tissue sections were mounted on precleaned microscope slides and stored at −20° C. for at least 3 days to improve adhesion of the tissue to the slide. […] The slides were incubated at room temperature with the radioligand for 120 min.
In selected cases, displacements with a single concentration (25 nM) of each of the above mentioned peptides were performed.
(§2) On completion of the incubation, the slides were washed four times for 5 min each in ice-cold preincubation solution, pH 7.4. They were rinsed twice in ice-cold distilled water, and then dried under a stream of cold air at 4° C., apposed to ^3H-Hyperfilms and exposed for 7 days in x-ray cassettes.
(§3) Tissue standards for iodinated compounds (Amersham) were used for this purpose.

[4] = biological target: T3, Y1 in human breast carcinoma (Homo sapiens, UniProt P25929); experiment: NPY receptor autoradiography, displacement of 125I-PYY in breast carcinoma sections; type: binding; conditions: FIG. 2; increasing concentrations; Y1-expressing breast tumor
T3 construct: Twenty-μm thick cryostat sections of the tissue samples were processed for NPY receptor autoradiography; from tissue; host or cells: human breast carcinoma cryostat sections
T3 sequence (P25929 1-384): T1 sequence (P25929 1-384)
Experimental: For autoradiography, tissue sections were mounted on precleaned microscope slides and stored at −20° C. for at least 3 days to improve adhesion of the tissue to the slide.
as §2, §3

Row | Compound | labeling of tumor by radioligand (total binding) ([1]; FIG. 1) | labeling of breast by radioligand (total binding) [2] | displacement of 125I-PYY, competition curves [4] | other results
1 | ^125I-[Leu^31, Pro^34]-PYY | strongly labeled | not or only very weakly visible | – | labeling of tumor by radioligand (total binding) ([1]; FIG. 1, Pro^34]-PYY): labeled
2 | [Leu^31, Pro^34]-NPY | – | – | – | affinity in surrounding breast (rank order of potency) [3]: low affinity
3 | PYY: member of the NPY family of 36 amino acid long peptides [peptide YY] | – | – | high affinity displacement | –
4 | C[C@H](N)C(=O)NCC(=O)N[C@H]1CSSC[C@@H](C(=O)O)NC(=O)[C@H](CO)NC(=O)[C@H]([C@@H](C)O)NC(=O)[C@H](Cc2ccccc2)NC(=O)[C@H]([C@@H](C)O)NC(=O)[C@H](CCCCN)NC(=O)[C@H](Cc2c[nH]c3ccccc23)NC(=O)[C@H](Cc2ccccc2)NC(=O)[C@H](Cc2ccccc2)NC(=O)[C@H](CC(N)=O)NC(=O)[C@H](CCCCN)NC1=O [Somatostatin] | – | – | inactive | –
5 | ^125I-PYY(3-36) | not seen | labeled | – | –
6 | PYY(13-36) | – | – | not | –
7 | ^125I-PYY | strong labeling | strong labeling | – | –
8 | [Leu^31, Pro^34]-PYY | – | – | completely displace the radiotracer with high affinity; also recorded: high affinity displacement | affinity in surrounding breast (rank order of potency) [3]: low affinity
